Experiment [1] concerns Trichophyton mentagrophytes SM-110. Briefly: Antifungal activity evaluation test: minimum inhibitory concentration (MIC), broth dilution by reference to CLSI M38-A2. Conditions: SM110, read-out: MIC (T. menta.). The class given is cell-based. In a few lines:
(§1)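 MIC read visually as lowest concentration inhibiting growth by at least 80% relative to control after 4 days at 35° C. Trichophyton strains inoculated at 2×10^3 cells/mL final in MOPS-buffered RPMI 1640 (pH 7.0); compounds as 2-fold DMSO series, CLSI M38-A2 basis.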
Background: In broth dilution the organism is exposed to a series of concentrations in liquid medium.

Experiment [2] has as its system Trichophyton rubrum KD-1130. Described as above. Conditions: KD1130, read-out: MIC (T. rubrum). In kind it is cell-based. The procedure, abridged: as §1

Converted amounts (≈) assume the structure as drawn.

For `CC(F)(F)c1ccc(Oc2ncccc2-c2nccc3ccccc23)cn1` [I-112, 1-(2-{[6-(1,1-difluoroethyl)pyridin-3-yl]oxy}-3-yl)isoquinoline], the minimum inhibitory concentration (MIC) in experiment [1] and in experiment [2] was 0.2 to 0.78 µg/mL (≈ 0.55 to 2.15 µM) in each case.
`CC(F)(F)c1ccc(Oc2ncccc2-c2cccc3ocnc23)cn1` [I-113, 4-(2-{[6-(1,1-difluoroethyl)pyridin-3-yl]oxy}-3-yl)benzo[d]oxazole]: the minimum inhibitory concentration (MIC) – broadly, the smallest concentration in the dilution series that meets the test's criterion for growth inhibition – in experiment [1] was at most 0.1 µg/mL; in experiment [2], 0.2 to 0.78 µg/mL (≈ 0.566 to 2.21 µM).
The corresponding values for `CC(F)(F)c1ccc(Oc2ncccc2-c2cccc3ncoc23)cn1` [I-114, 7-(2-{[6-(1,1-difluoroethyl)pyridin-3-yl]oxy}pyridin-3-yl)benzo[d]oxazole] are 0.2 to 0.78 µg/mL (≈ 0.566 to 2.21 µM) and 0.2 to 0.78 µg/mL (≈ 0.566 to 2.21 µM).
The corresponding values for `CC(F)(F)c1ccc(Oc2ncccc2-c2cccc3ccnn23)cn1` [I-115, 7-(2-{[6-(1,1-difluoroethyl)pyridin-3-yl]oxy}pyridin-3-yl)pyrazolo[1,5-a]pyridine] are at most 0.1 µg/mL and at most 0.1 µg/mL.
With `CC(F)(F)c1ccc(Oc2ncccc2-c2cccc3c(Cl)cnn23)cn1` [I-116, 3-chloro-7-(2-{[6-(1,1-difluoroethyl)pyridin-3-yl]oxy}pyridin-3-yl)pyrazolo[1,5-a]pyridine], the minimum inhibitory concentration (MIC) in experiment [1] and in experiment [2] was at most 0.1 µg/mL in each case.
Take `COc1ccccc1-c1cccnc1Oc1cnc(C(F)(F)F)c(C)c1` [I-117, 5-{[3-(2-methoxyphenyl)pyridin-2-yl]oxy}-3-methyl-2-(trifluoromethyl)pyridine]: the minimal inhibitory concentration (MIC) in experiment [1] and in experiment [2] was at most 0.1 µg/mL in each case.
Turning to `COc1cc(F)ccc1-c1cccnc1Oc1cnc(C(F)(F)F)c(C)c1` [I-118, 5-{[3-(4-fluoro-2-methoxyphenyl)pyridin-2-yl]oxy}-3-methyl-2-(trifluoromethyl)pyridine], the minimal inhibitory concentration (MIC) in experiment [1] and in experiment [2] was at most 0.1 µg/mL each time.
Turning to `COc1ncc(F)cc1-c1cccnc1Oc1cnc(C(F)(F)F)c(C)c1` [I-119, 5-fluoro-2-methoxy-2′-{[5-methyl-6-(trifluoromethyl)pyridin-3-yl]oxy}-3,3′-bipyridine], the minimal inhibitory concentration (MIC) in experiment [1] and in experiment [2] was at most 0.1 µg/mL each time.
On to `COc1ccccc1-c1cccnc1Oc1cnc(C(F)F)c(C)c1` [I-120], for which the MIC in experiment [1] and in experiment [2] was at most 0.1 µg/mL throughout.
With `COc1cc(F)ccc1-c1cccnc1Oc1cnc(C(F)F)c(C)c1` [I-121, 2-(difluoromethyl)-5-{[3-(4-fluoro-2-methoxyphenyl)pyridin-2-yl]oxy}-3-methylpyridine], the minimal inhibitory concentration (MIC) in experiment [1] and in experiment [2] was at most 0.1 µg/mL throughout.
For `COc1ccc(F)cc1-c1cccnc1Oc1cnc(C(F)F)c(C)c1` [I-122, 2-(difluoromethyl)-5-{[3-(5-fluoro-2-methoxyphenyl)pyridin-2-yl]oxy}-3-methylpyridine], the MIC in experiment [1] and in experiment [2] was at most 0.1 µg/mL in each case.
In the case of `COc1ccc(-c2cccnc2Oc2cnc(C(F)F)c(C)c2)c(OC)n1` [I-123, 2′-{[6-(difluoromethyl)-5-methylpyridin-3-yl]oxy}-2,6-dimethoxy-3,3′-bipyridine], the minimal inhibitory concentration (MIC) in experiment [1] and in experiment [2] was at most 0.1 µg/mL each time.
With `CCc1ccc(Oc2ncccc2-c2ccccc2OC)cn1` [I-124, 2-[(6-ethylpyridin-3-yl)oxy]-3-(2-methoxyphenyl)pyridine], the MIC in experiment [1] and in experiment [2] was 0.2 to 0.78 µg/mL (≈ 0.653 to 2.55 µM) each time.
In the case of `CCc1ccc(Oc2ncccc2-c2cccc3c2OCC3)cn1` [I-125], the results for the minimum inhibitory concentration (MIC) in experiment [1] and in experiment [2] were at most 0.1 µg/mL and 0.2 to 0.78 µg/mL (≈ 0.628 to 2.45 µM), respectively.
The corresponding values for `CCc1ccc(Oc2ncccc2-c2cccnc2OC)cn1` [I-126, 2-[(6-ethylpyridin-3-yl)oxy]-2′-methoxy-3,3′-bipyridine] are 0.2 to 0.78 µg/mL (≈ 0.651 to 2.54 µM) and 0.2 to 0.78 µg/mL (≈ 0.651 to 2.54 µM).
As to `CCc1ccc(Oc2ncccc2-c2cnccc2OC)cn1` [I-127, 2-[(6-ethylpyridin-3-yl)oxy]-4′-methoxy-3,3′-bipyridine], the minimum inhibitory concentration (MIC) in experiment [1] and in experiment [2] was 1.56 to 6.25 µg/mL (≈ 5.08 to 20.3 µM) each time.
